Read-outs that look alike come from different tables or passages of the source.

For one test, the system named is MV-3 cells. The experiment in a line: T-cell - TCB - MV3 killing assay (MCSP-TCB, RFP object count by Incucyte). The test is classed as cell-based, human. The note with it: 5 d; for Emax: read-out: MSCP TCB killing MV-3 cells 5 d Emax; for EC50: primary human T-cells + MCSP-TCB, MV-3 RFP cells, read-out: MSCP TCB killing MV-3 cells 5 d EC50.
Test [1] concerns primary human T-cells. The experiment in a line: Proliferation assay after 5 days (CellTiter-Glo, CD3 stimulation; PBS counter screen). The test is classed as cell-based. The note with it: CD3 stimulation; for Emax / Emax proliferation (% activation): 5 days, normalized to reference compound A1 as stimulator control = 100%, DMSO neutral control; for Emax: read-out: Emax proliferation (% activation); for EC50: primary human T-cells, CellTiter-Glo after 5 days, EC50 of fitted sigmoidal curve, read-out: Tcell Proliferation CD3 EC50. In a few lines: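 Luminescent ATP detection (CellTiter-Glo 2.0) quantified cell number 5 days after compounds went onto medium-only plates. Wells showing visible toxicity or precipitate were noted beforehand, and compounds that stimulated unstimulated cells or lowered viability were flagged.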
On the technique in general: Cellular ATP, detected with luciferase, serves as a proxy for viable cell number.

Test [2] relates to primary human T-cells.
Where [3] appears, read: Homo sapiens, MV-3, 120 h, normalized: MCSP-TCB only = neutral control, 20 μM reference compound A1 = 100%.

For the compound `CC(C)(CO)c1noc(-c2cc3c(cc2F)S(=O)(=O)C[C@H](N)C(=O)N3Cc2ccc(Cl)cc2)n1` (racemic) [Example 46], the Emax with MV-3 cells (setting [3]) is 83%; with primary human T-cells [1] (Homo sapiens, T-cell, 120 h), 94%. In addition, the EC50 in the test on MV-3 cells amounted to 1040 nM; in the test on primary human T-cells [1] (Homo sapiens, T-cell, 120 h) it was 1820 nM; in the test with primary human T-cells [2], 686 nM.

For the compound `N[C@H]1C[S+]([O-])c2cc(F)c(-c3noc(N4CCOC5(CC5)C4)n3)cc2N(Cc2ccc(Cl)cc2)C1=O` (single isomer, unassigned; epimer a) [Example 211], in the test on MV-3 cells (setting [3]), the Emax was determined as 86%. In addition, the EC50 in the test with MV-3 cells (Homo sapiens, MV-3, 120 h) was 45 nM; in the test on primary human T-cells [1], 326 nM; in the test on primary human T-cells [2] it was 793 nM.

In the case of `CC(C)(C)c1nnc(-c2cc3c(cc2F)[S+]([O-])C[C@H](N)C(=O)N3Cc2ccc(Cl)cc2)o1` (single isomer, unassigned; epimer b) [Example 187], the “MSCP TCB killing MV-3 cells 5 d Emax” value with MV-3 cells (normalized: MCSP-TCB only = neutral control, 20 μM reference compound A1 = 100%) worked out at 57%. Further, the EC50 in the test on MV-3 cells stood at 1640 nM; in the test with primary human T-cells [1] it was 1540 nM; with primary human T-cells [2], 594 nM. The “Emax proliferation (% activation)” value with primary human T-cells [1] is listed as 92 % activation.

`CCc1cn(-c2cc3c(cc2F)S(=O)(=O)C[C@H](N)C(=O)N3Cc2ccc(Cl)cc2)nn1` [Example 3, (3R)-3-amino-5-[(4-chlorophenyl)methyl]-7-(4-ethyltriazol-1-yl)-8-fluoro-1,1-dioxo-2,3-dihydro-1λ^6,5-benzothiazepin-4-one]: the Emax came out at 100% in the test on MV-3 cells (setting [3]) and 68% with primary human T-cells [1] (Homo sapiens, T-cell, 120 h). Further, the EC50 in the test with MV-3 cells amounted to 1550 nM; in the test on primary human T-cells [1] (Homo sapiens, T-cell, 120 h), 4300 nM; in the test on primary human T-cells [2], 12000 nM.

As for `CC(C)(C)n1nnc(-c2cc3c(cc2F)S(=O)(=O)C[C@H](N)C(=O)N3Cc2ccc(Cl)cc2)n1` [Example 8, (3R)-3-amino-7-(2-tert-butyltetrazol-5-yl)-5-[(4-chlorophenyl)methyl]-8-fluoro-1,1-dioxo-2,3-dihydro-1λ^6,5-benzothiazepin-4-one], the Emax stood at 96% in the test on MV-3 cells (setting [3]) and 130% in the test with primary human T-cells [1] (Homo sapiens, T-cell, 120 h). Moreover, the EC50 with MV-3 cells (Homo sapiens, MV-3, 120 h) turned out to be 70 nM; in the test on primary human T-cells [1] (Homo sapiens, T-cell, 120 h), 84.5 nM; with primary human T-cells [2], 93.8 nM.

With `CN1CCC(n2nnc(-c3cc4c(cc3F)S(=O)(=O)C[C@H](N)C(=O)N4Cc3ccc(Cl)cc3)n2)C1` (stereo partly drawn) [Example 12, (3R)-3-amino-5-[(4-chlorophenyl)methyl]-8-fluoro-7-[2-(1-methylpyrrolidin-3-yl)tetrazol-5-yl]-1,1-dioxo-2,3-dihydro-1λ^6,5-benzothiazepin-4-one], the Emax is 96% in the test on MV-3 cells (setting [3]) and 84% with primary human T-cells [1] (Homo sapiens, T-cell, 120 h). The EC50 in the test on MV-3 cells came to 910 nM; in the test on primary human T-cells [1] (Homo sapiens, T-cell, 120 h), 1020 nM; in the test with primary human T-cells [2], 967 nM.

Consider `CC(C)(C)n1nnc(-c2ccc3c(c2)N(Cc2ccc(Cl)cc2)C(=O)[C@@H](N)CS3(=O)=O)n1` [Example 36], for which the Emax in the test on MV-3 cells (setting [3]) is 81%; in the test on primary human T-cells [1] (Homo sapiens, T-cell, 120 h), 86%. In addition, the EC50 in the test with MV-3 cells stood at 390 nM; with primary human T-cells [1] (Homo sapiens, T-cell, 120 h), 404 nM; in the test with primary human T-cells [2], 472 nM.

Regarding `CCc1noc(-c2cc3c(cc2F)S(=O)(=O)C[C@H](N)C(=O)N3Cc2ccc(Cl)cc2)n1` [Example 41, (3R)-3-Amino-5-[(4-chlorophenyl)methyl]-7-(3-ethyl-1,2,4-oxadiazol-5-yl)-8-fluoro-1,1-dioxo-2,3-dihydro-1λ^6,5-benzothiazepin-4-one], the Emax with MV-3 cells (setting [3]) worked out at 92%; with primary human T-cells [1] (Homo sapiens, T-cell, 120 h), 61%. For the same compound, the EC50 in the test with MV-3 cells was found to be 230 nM; in the test with primary human T-cells [1] (Homo sapiens, T-cell, 120 h), 9360 nM.

In the case of `CC(C)(C)c1nnc(-c2cc3c(cc2F)SC[C@H](N)C(=O)N3Cc2ccc(OC(F)(F)F)cc2)o1` [Example 54, (3R)-3-amino-7-(5-tert-butyl-1,3,4-oxadiazol-2-yl)-8-fluoro-5-[[4-(trifluoromethoxy)phenyl]methyl]-2,3-dihydro-1,5-benzothiazepin-4-one], the Emax with MV-3 cells (setting [3]) is 123%; with primary human T-cells [1] (Homo sapiens, T-cell, 120 h), 116%. In addition, the EC50 is 300 nM in the test on MV-3 cells (Homo sapiens, MV-3, 120 h) and 1120 nM in the test with primary human T-cells [1] (Homo sapiens, T-cell, 120 h).

With `N[C@H]1CS(=O)(=O)c2cc(F)c(-c3nnc(CC(F)(F)F)o3)cc2N(Cc2ccc(OC(F)(F)F)cc2)C1=O` [Example 56, (3R)-3-Amino-8-fluoro-1,1-dioxo-7-[5-(2,2,2-trifluoroethyl)-1,3,4-oxadiazol-2-yl]-5-[[4-(trifluoromethoxy)phenyl]methyl]-2,3-dihydro-1λ^6,5-benzothiazepin-4-one], the Emax with MV-3 cells (setting [3]) is 123%; in the test with primary human T-cells [1] (Homo sapiens, T-cell, 120 h) it was 136%. Also, the EC50 in the test on MV-3 cells is 110 nM; with primary human T-cells [1] (Homo sapiens, T-cell, 120 h), 414 nM.

Take `COC(F)(c1nc(-c2cc3c(cc2F)[S+]([O-])C[C@H](N)C(=O)N3Cc2ccc(F)cc2)no1)C(F)(F)F` (stereo partly drawn) [Example 514, (3R)-3-amino-8-fluoro-5-[(4-fluorophenyl)methyl]-1-oxo-7-[5-(1,2,2,2-tetrafluoro-1-methoxy-ethyl)-1,2,4-oxadiazol-3-yl]-2,3-dihydro-1λ^4,5-benzothiazepin-4-one]: in the test on primary human T-cells [1] (Homo sapiens, T-cell, 120 h), the Emax amounted to 105% and the EC50 was 1950 nM. In addition, the EC50 in the test with primary human T-cells [2] was 1920 nM.

With `COC(F)(c1nc(-c2cc3c(cc2F)S(=N)(=O)C[C@H](N)C(=O)N3Cc2ccc(Cl)cc2)no1)C(F)(F)F` (stereo partly drawn) [Example 515, (3R)-3-amino-5-[(4-chlorophenyl)methyl]-8-fluoro-1-imino-1-oxo-7-[5-(1,2,2,2-tetrafluoro-1-methoxy-ethyl)-1,2,4-oxadiazol-3-yl]-2,3-dihydro-1λ^6,5-benzothiazepin-4-one], in the test with primary human T-cells [1] (Homo sapiens, T-cell, 120 h), the Emax stood at 63% and the EC50 stood at 4910 nM. Moreover, in the test with primary human T-cells [2], the EC50 is 4070 nM.

As to `CC(C)(C)c1nc(-c2cc3c(cc2F)S(=N)(=O)C[C@H](N)C(=O)N3Cc2ccc(Cl)cc2)no1` (stereo partly drawn) [Example 516, (3R)-3-amino-7-(5-tert-butyl-1,2,4-oxadiazol-3-yl)-5-[(4-chlorophenyl)methyl]-8-fluoro-1-imino-1-oxo-2,3-dihydro-1λ^6,5-benzothiazepin-4-one], in the test on primary human T-cells [1] (Homo sapiens, T-cell, 120 h), the Emax is 51% and the EC50 amounted to 8330 nM. In the test with primary human T-cells [2], this compound had an EC50 of 2740 nM.

As for `CN=S1(=O)C[C@H](N)C(=O)N(Cc2ccc(OC(F)(F)F)cc2)c2cc(-c3nnc(C(C)(C)C)o3)c(F)cc21` (stereo partly drawn) [Example 519, (3R)-3-amino-7-(5-tert-butyl-1,3,4-oxadiazol-2-yl)-8-fluoro-1-methylimino-1-oxo-5-[[4-(trifluoromethoxy)phenyl]methyl]-2,3-dihydro-1λ^6,5-benzothiazepin-4-one], in the test with primary human T-cells [1] (Homo sapiens, T-cell, 120 h), the Emax was 72% and the EC50 was 4370 nM. Also, in the test with primary human T-cells [2], the EC50 worked out at 5530 nM.

For the compound `COC(=O)N1CC2CC(c3nc(-c4cc5c(cc4F)S(=N)(=O)C[C@H](N)C(=O)N5Cc4ccc(OC(F)(F)C(F)F)cc4)no3)(C2)C1` (stereo partly drawn) [Example 520, methyl 1-[3-[(3R)-3-amino-8-fluoro-1-imino-1,4-dioxo-5-[[4-(1,1,2,2-tetrafluoroethoxy)phenyl]methyl]-2,3-dihydro-1λ^6,5-benzothiazepin-7-yl]-1,2,4-oxadiazol-5-yl]-3-azabicyclo[3.1.1]heptane-3-carboxylate], in the test with primary human T-cells [1] (Homo sapiens, T-cell, 120 h), the Emax was 42% and the EC50 stood at 267 nM. Moreover, the EC50 with primary human T-cells [2] stood at 1150 nM.

For `Cc1cc2c(cc1-c1nnc(C3CN(C)CC(F)(F)C3)o1)N(Cc1ccc(Cl)cc1)C(=O)[C@@H](N)CS2(=O)=O` (stereo partly drawn) [Example 524, (3R)-3-amino-5-[(4-chlorophenyl)methyl]-7-[5-(5,5-difluoro-1-methyl-3-piperidyl)-1,3,4-oxadiazol-2-yl]-8-methyl-1,1-dioxo-2,3-dihydro-1λ^6,5-benzothiazepin-4-one], the Emax in the test with primary human T-cells [1] (Homo sapiens, T-cell, 120 h) came to 80%. Besides, the EC50 is 4270 nM with primary human T-cells [1] (Homo sapiens, T-cell, 120 h) and greater than 10000 nM with primary human T-cells [2].

Take `CCc1ncn(-c2cc3c(cc2F)S(=O)(=O)C[C@H](N)C(=O)N3Cc2ccc(Cl)cc2)n1` [Example 525, (3R)-3-amino-5-[(4-chlorophenyl)methyl]-7-(3-ethyl-1,2,4-triazol-1-yl)-8-fluoro-1,1-dioxo-2,3-dihydro-1λ^6,5-benzothiazepin-4-one]: the Emax in the test with primary human T-cells [1] (Homo sapiens, T-cell, 120 h) was 67%. The EC50 with primary human T-cells [1] (Homo sapiens, T-cell, 120 h) was determined as 935 nM; with primary human T-cells [2] it was 3510 nM.

`CC(C)(C)c1cn(-c2cc3c(cc2F)S(=O)(=O)C[C@H](N)C(=O)N3Cc2ccc(Cl)cc2)cn1` [Example 527]: the “Emax proliferation (% activation)” value in the test on primary human T-cells [1] was 69 % activation. Moreover, the EC50 amounted to 1280 nM in the test with primary human T-cells [1] and 292 nM with primary human T-cells [2].

“(3R)-3-amino-5-[(4-chlorophenyl)methyl]-7-[5-(2,2-difluoromorpholin-4-yl)-1,3,4-oxadiazol-2-yl]-1,1-dioxo-2,3-dihydro-1λ^6,5-benzothiazepin-4-one [Example 413]”: in the test on primary human T-cells [1], the “Emax proliferation (% activation)” value was found to be 160 % activation and the EC50 was 193 nM. The same compound showed an EC50 in the test with primary human T-cells [2] of 1080 nM.

As for “(3R)-3-amino-7-[5-[4-(chloromethyl)-4-(hydroxymethyl)cyclohexyl]-1,3,4-oxadiazol-2-yl]-5-[(4-chlorophenyl)methyl]-8-fluoro-1,1-dioxo-2,3-dihydro-1λ^6.5-benzothiazepin-4-one [Example 482]”, in the test on primary human T-cells [1], the “Emax proliferation (% activation)” value came to 106 % activation and the EC50 was determined as 786 nM. For the same compound, in the test with primary human T-cells [2], the EC50 turned out to be 1250 nM.

(Values after patent publication US20240368150A1 (Hoffmann-La Roche Inc., priority 2021, published 2024).)
